From the NIST ThermoML archive (doi:10.1016/j.jct.2018.12.021)
± gives the expanded uncertainty stated by the source.

Key:
[1] = for Normal melting temperature: Crystal, DTA
[2] = mn = molality of the nth substance listed, in mol/kg; settings: 303.15 K, Ring tensiometer, m2 = 0

| SMILES | surface tension liquid-gas [2] | Normal melting temperature [1] | other results |
| --- | --- | --- | --- |
| O [water] | – | – | surface tension liquid-gas ([1]; 303.15 K, Liquid, Ring tensiometer): 71.14 ± 2.3 mN/m |
| CCCCCCCCCCCC[n+]1cscc1C.[Br-] [N-dodecyl-4-methylthiazolium bromide] | – | 103.16 ± 0.7 °C | – |
| CCCCCCCCCCCC[n+]1ccsc1.[Br-] [N-dodecylthiazolium bromide] | – | 67 ± 0.7 °C | – |

Now from value to molecule, other results behind:

| surface tension liquid-gas [2] | Normal melting temperature [1] | SMILES | other results |
| --- | --- | --- | --- |
| 71.14 ± 2.3 mN/m | – | O [water] + CCCCCCCCCCCC[n+]1ccsc1.[Br-] | – |
| 71.14 ± 2.3 mN/m | – | O [water] + CCCCCCCCCCCC[n+]1cscc1C.[Br-] | – |
